In patent US8110582B2, “Prophylactic treatment of UV-induced epidermal neoplasia” (3M Innovative Properties Company, priority 2003, dated 2012):

System: UV-induced squamous cell carcinoma (SCC), actinic keratosis (AK), or pre-AK lesions
Assay: UV-induced epidermal neoplasia in SKH-1 mice, Example 4 (simultaneous initiation, 17 weeks)
Assay type: in vivo
Conditions: 0.1% formulation, twice per week; for Avg. Disease Score: UV 17 weeks, every SCC, AK and pre-AK lesion scored 1; for % Disease / Diseased (number of mice): UV five days per week for 17 weeks
Source text: Female SKH-1 mice 9-10 weeks old were obtained from Charles River (Raleigh, N.C.) and housed in a room with controlled temperatures and humidity and alternating 12-hour light and dark cycles. The room is lit with fluorescent lights covered by yellow sleeves from EncapSulite International, Inc. (Rosenberg, Tex.) to eliminate all ambient UV radiation. The mice were fed with a 12% Corn Oil Purified Diet from Purina Test Diet (Richmond, Va.) and water, ad libitum. The animals were maintained in facilities approved by the Association for the Assessment and Accreditation of Laboratory Animal Care International and in accordance with current United States Department of Agriculture, Department of Health and Human Services, and National Institutes of Health regulations and standards.
A small group of mice were not exposed to UV and were used as negative controls. The other mice were chronically UV irradiated. After randomization the mice were lightly anesthetized with halothane and adjustable collars made of hook and loop fastener approximately 10 mm wide and 70 mm long were placed around the mouse's neck to prevent oral ingestion of the IRM. Unless otherwise indicated, thirty minutes before UV exposure mice were topically dosed with 30 μL of either (1) vehicle formulation, (2) IRM formulation, or (3) an SPF 30 sunscreen (NEUTROGENA SPF30 Sunblock with PARSOL 1789), two times per week for a total of 15-18 weeks on the dorsal surface in an area approximately 6 cm^2. Approximately four hours after dosing, the topical treatment (i.e, vehicle formulation; IRM formulation, or sunscreen) was washed off using a dilute soap solution.
Mice were placed in a standard plexiglass rat cage, 9-10 at a time, that was separated into 12 individual compartments with plexiglass dividers and placed on a shelf 14 inches below the light source without wire cage tops. The mice were exposed to UV radiation 5 times per week (Monday thru Friday) for an average of 15-18 weeks. The UV radiation was provided by a bank of six FS40 lamps (National Biological Corporation, Twinsburg, Ohio), filtered by a Kodacel filter (140 μm thick K6808 cellulose triacetate film; Eastman Kodak, Rochester, N.Y.) that transmits radiation having a wavelength from about 293 nm to about 400 nm. The Kodacel filter was aged 4-6 hours before use. The lights emit UVB (21%) and UVA (79%) light with a peak wavelength of 313 nm, as measured using a radiometer Model PMA 2200 from Solar Light Company (Philadelphia, Pa.) with a PMA 2101 detector for UVB and PMA2110 detector for UVA.
The dose of UVB irradiation was measured by MED (minimal erythemal dose). By using MED, a relatively constant incident dose of UV was maintained over time. The initial dose of UVB to the mice was 12.6 mJ/cm^2 (0.6 MED) and the average total dose of UVB was 3000-5200 mJ/cm^2. An increase of 10-20% of the MED dose per week was needed due to acclimation of the mice.
All mice were distinguished from one another by a tattoo placed on the tail. The development and appearance of tumors were noted weekly and recorded starting at about 14-18 weeks.
UV dosing and IRM dosing were initiated simultaneously. Daily UV dosing was performed five days per week for 17 weeks. IRM dosing was performed twice per week with the compounds indicated in Table 9, each in a 0.1% formulation. SPF dosing was performed five times per week.
An additional group of mice were topically dosed twice per week with 0.1% formulation of a non-IRM control compound: 1,5-dihydro-1-(2-methylpropyl)-4H-imidazo[4,5-c]quinolin-4-one, the synthesis of which is described in U.S. Pat. No. 4,698,348, Example 71, formulated as shown in Table 8. The non-IRM compound is structurally related to, but outside the scope of, IRM compounds as provided above. […] Mice in the non-IRM group were UV dosed five times per week for 18 weeks. […]

| Compound | Avg. Disease Score | % Disease [%] | Diseased (number of mice) |
| --- | --- | --- | --- |
| Nc1nc2ccccc2c2c1nc1n2CCCC1 [IRM3, 8,9,10,11-tetrahydropyrido[1′,2′:1,2]imidazo[4,5-c]quinolin-6-amine] | 1.00 ± 0.54 | 30 | 3 |
| CCOCc1nc2c(N)nc3ccccc3c2n1CC(C)(C)NC(=O)C1CCCCC1 [IRM4, N-{2-[4-amino-2-(ethoxymethyl)-1H-imidazo[4,5-c]quinolin-1-yl]-1,1-dimethylethyl}cyclohexanecarboxamide] | 0.67 ± 0.67 | 11 | 1 |
| CCc1nc2c(N)nc3ccccc3c2n1CCCCNC(=O)C(C)C [IRM5, N-[4-(4-amino-2-ethyl-1H-imidazo[4,5-c]quinolin-1-yl)butyl]-2-methylpropanamide] | 5.40 ± 1.91 | 60 | 6 |
| CCCc1nc2c(N)nc3ccccc3c2n1CC(C)(C)NS(C)(=O)=O [IRM6, N-[2-(4-amino-2-propyl-1H-imidazo[4,5-c]quinolin-1-yl)-1,1-dimethylethyl]methanesulfonamide] | 0.38 ± 0.38 | 13 | 1 |
| COCCc1nc2c(N)nc3c(c2n1CC(C)(C)NS(C)(=O)=O)CCCC3 [IRM7, N-{2-[4-amino-2-(2-methoxyethyl)-6,7,8,9-tetrahydro-1H-imidazo[4,5-c]quinolin-1-yl]-1,1-dimethylethyl}methanesulfonamide] | 3.90 ± 1.30 | 60 | 6 |
| CCCc1nc2c(N)nc3ccccc3c2n1CCCCNC(=O)NC(C)C [IRM8, N-[4-(4-amino-2-propyl-1H-imidazo[4,5-c]quinolin-1-yl)butyl]-N′-isopropylurea] | 3.13 ± 0.89 | 75 | 6 |
| CCOCc1nc2c(N)nc(C)c(C)c2n1CC(C)(C)NC(=O)NC1CCCCC1 [IRM9, N-{2-[4-amino-2-(ethoxymethyl)-6,7-dimethyl-1H-imidazo[4,5-c]pyridin-1-yl]-1,1-dimethylethyl}-N′-cyclohexylurea] | 2.00 ± 0.89 | 60 | 3 |
| Nc1nc2ccccc2c2c1ncn2CCOCCCc1cccnc1 [IRM10, 1-{2-[3-(3-pyridyl)propoxy]ethyl}-1H-imidazo[4,5-c]quinolin-4-amine] | 2.50 ± 1.07 | 70 | 7 |
| CCCCc1nc2c(N)nc3ccccc3c2n1CCCS(C)(=O)=O [IRM11, 2-butyl-1-[3-(methylsulfonyl)propyl]-1H-imidazo[4,5-c]quinolin-4-amine] | 0.70 ± 0.47 | 20 | 2 |
| CCCCc1nc2c(N)nc3ccccc3c2n1CCS(=O)(=O)CCC [IRM12, 2-butyl-1-[2-(propylsulfonyl)ethyl]-1H-imidazo[4,5-c]quinolin-4-amine] | 0.00 ± 0.00 | 0 | 0 |
| CCOCc1nc2c(N)nc3ccccc3c2n1NC(C)C [IRM13, 2-ethoxymethyl-N^1-isopropyl-1H-imidazo[4,5-c]quinoline-1,4-diamine] | 3.33 ± 1.54 | 67 | 4 |
